According to ChEMBL document CHEMBL1255360, “Daptomycin exerts bactericidal activity without lysis of Staphylococcus aureus” (2008):
Values after ≈ are worked out from the molar mass of the structure shown. Active and inactive are the calls of the source. No cut-off for these calls is given here.

Experiments:
Staphylococcus aureus [1] = experiment: Bactericidal activity against Staphylococcus aureus ATCC 29213 assessed as membrane permeability at 4 ug/ml by ToPro3 dye based assay; assay type: functional, organism-based
Staphylococcus aureus [2] = experiment: Bactericidal activity against Staphylococcus aureus ATCC 29213 assessed as calcein release at 4 ug/ml; assay type: functional, organism-based
Staphylococcus aureus [3] = experiment: Bactericidal activity against Staphylococcus aureus ATCC 29213 assessed as cell lysis at 4 ug/ml after 60 mins by transmission electron microscopy; assay type: functional, organism-based
Staphylococcus aureus [4] = experiment: Bactericidal activity against Staphylococcus aureus ATCC 29213 assessed as altered cell morphology at 4 ug/ml after 60 mins by transmission electron microscopy; assay type: functional
Staphylococcus aureus [5] = experiment: Bactericidal activity against Staphylococcus aureus ATCC 29213 assessed as decrease in cell viability at 4 ug/ml within 120 mins; assay type: functional
Staphylococcus aureus [6] = experiment: microbe, parasite or virus in culture; conditions: ATCC 29213
Description: Antimicrobial activity against Staphylococcus aureus ATCC 29213

Staphylococcus aureus [7] = experiment: Bactericidal activity against Staphylococcus aureus ATCC 29213 assessed as cell lysis at 4 ug/ml after 120 mins; assay type: functional, organism-based
Staphylococcus aureus [8] = experiment: Bactericidal activity against Staphylococcus aureus ATCC 29213 assessed as cell lysis at MIC after 120 mins; assay type: functional
Staphylococcus aureus [9] = experiment: Bactericidal activity against Staphylococcus aureus ATCC 29213 assessed as decrease in cell viability at MIC after 120 mins; assay type: functional

| SMILES | Activity (Staphylococcus aureus [1]) | Activity (Staphylococcus aureus [2]) | Activity (Staphylococcus aureus [3]) | Activity (Staphylococcus aureus [4]) [%] | fold change (FC) (Staphylococcus aureus [5]) | MIC (Staphylococcus aureus [6]) [µg/mL] | Activity (Staphylococcus aureus [7]) | Activity (Staphylococcus aureus [8]) [%] | fold change (FC) (Staphylococcus aureus [9]) |
| --- | --- | --- | --- | --- | --- | --- | --- | --- | --- |
| CCCCCCCCCC(=O)N[C@@H](Cc1c[nH]c2ccccc12)C(=O)N[C@H](CC(N)=O)C(=O)N[C@@H](CC(=O)O)C(=O)N[C@@H]1C(=O)NCC(=O)N[C@@H](CCCN)C(=O)N[C@@H](CC(=O)O)C(=O)N[C@H](C)C(=O)N[C@@H](CC(=O)O)C(=O)NCC(=O)N[C@H](CO)C(=O)N[C@@H]([C@H](C)CC(=O)O)C(=O)N[C@@H](CC(=O)c2ccccc2N)C(=O)O[C@@H]1C | inactive | inactive | inactive | >90 | >1000 | 0.5 (≈ 0.309 µM) | inactive | 50 | 200 |
| O=C(O)c1cn(C2CC2)c2cc(N3CCNCC3)c(F)cc2c1=O | inactive | – | – | – | – | – | – | – | – |
